“And” between values parts separate entries of the source, which are not always exact repeats. Equal values may be shown once.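 Interpolation was linear, between the two tested concentrations surrounding the appropriate level; five concentrations were tested over 48 hours in 96-well plates. Abbreviation: GI50, concentration required for 50% inhibition of growth.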 The source made the active and inactive calls. Rule as the data show it: active = GI50 up to about 1.1 µM and inactive = higher.
How the values were obtained:
Assay in all cases: NCI-60 cell line screen, 48 h
A498 = test system: A498
A549 = test system: A549
ACHN = test system: ACHN
CCRF-CEM = test system: CCRF-CEM
COLO 205 = test system: COLO 205
DLD-1 = test system: DLD-1
DMS-114 = test system: DMS-114
DMS-273 = test system: DMS-273
EKVX = test system: EKVX
HCT-116 = test system: HCT-116
HCT-15 = test system: HCT-15
HL-60 = test system: HL-60
HOP-18 = test system: HOP-18
HOP-62 = test system: HOP-62
HOP-92 = test system: HOP-92
K562 = test system: K562
KM-20L2 = test system: KM-20L2
LOX IMVI = test system: LOX IMVI
LXFL 529 = test system: LXFL 529
M14 = test system: M14
MOLT-4 = test system: MOLT-4
NCI-H23 = test system: NCI-H23
NCI-H460 = test system: NCI-H460
NCI-H522 = test system: NCI-H522
OVCAR-8 = test system: OVCAR-8
RPMI-8226 = test system: RPMI-8226
RXF 393 = test system: RXF 393
RXF 631 = test system: RXF 631
SF-268 = test system: SF-268
SF-295 = test system: SF-295
SF-539 = test system: SF-539
SK-MEL-28 = test system: SK-MEL-28
SK-MEL-5 = test system: SK-MEL-5
SK-OV-3 = test system: SK-OV-3
SN12C = test system: SN12C
SW-620 = test system: SW-620
TK-10 = test system: TK-10
U-251 = test system: U-251
UO-31 = test system: UO-31
XF498 = test system: XF498
786-0 = test system: 786-0
CAKI-1 = test system: CAKI-1
HCC 2998 = test system: HCC 2998
HT-29 = test system: HT-29
IGROV-1 = test system: IGROV-1
KM12 = test system: KM12
M19-MEL = test system: M19-MEL
Malme-3M = test system: Malme-3M
NCI-H226 = test system: NCI-H226
OVCAR-3 = test system: OVCAR-3
OVCAR-4 = test system: OVCAR-4
OVCAR-5 = test system: OVCAR-5
SK-MEL-2 = test system: SK-MEL-2
SNB-19 = test system: SNB-19
SNB-75 = test system: SNB-75
SR = test system: SR
UACC-257 = test system: UACC-257
UACC-62 = test system: UACC-62

For `Nc1ccn(C2OC(C(O)CO)C(O)C2O)c(=O)n1` (stereo not given), the GI50 (A498) was > 100 µM (inactive), the GI50 (A549) was > 100 µM (inactive) and the GI50 (ACHN) was > 100 µM (inactive). For the same compound, the GI50 (CCRF-CEM) was > 100 µM (inactive), the GI50 (COLO 205) was > 100 µM (inactive) and the GI50 (DLD-1) was > 100 µM (inactive). The GI50 (DMS-114) was > 100 µM (inactive), the GI50 (DMS-273) was > 100 µM (inactive) and the GI50 (EKVX) was > 100 µM (inactive). For the same compound, the GI50 (HCT-116) was > 100 µM (inactive), the GI50 (HCT-15) was over 100 µM and the GI50 (HL-60) was > 100 µM (inactive). The GI50 (HOP-18) was > 100 µM (inactive), the GI50 (HOP-62) was > 100 µM (inactive) and the GI50 (HOP-92) was > 100 µM (inactive). The GI50 (K562) was > 100 µM (inactive), the GI50 (KM-20L2) was > 100 µM (inactive) and the GI50 (LOX IMVI) was > 100 µM (inactive). The GI50 (LXFL 529) was > 100 µM (inactive), the GI50 (M14) was > 100 µM (inactive) and the GI50 (MOLT-4) was > 100 µM (inactive). The GI50 (NCI-H23) was > 100 µM (inactive), the GI50 (NCI-H460) was > 100 µM (inactive) and the GI50 (NCI-H522) was > 100 µM (inactive). For the same compound, the GI50 (OVCAR-8) was > 100 µM (inactive), the GI50 (RPMI-8226) was > 100 µM (inactive) and the GI50 (RXF 393) was > 100 µM (inactive). For the same compound, the GI50 (RXF 631) was > 100 µM (inactive), the GI50 (SF-268) was > 100 µM (inactive) and the GI50 (SF-295) was > 100 µM (inactive). The GI50 (SF-539) was > 100 µM (inactive), the GI50 (SK-MEL-28) was > 100 µM (inactive) and the GI50 (SK-MEL-5) was > 100 µM (inactive). For the same compound, the GI50 (SK-OV-3) was > 100 µM (inactive), the GI50 (SN12C) was > 100 µM (inactive) and the GI50 (SW-620) was > 100 µM (inactive). For the same compound, the GI50 (TK-10) was > 100 µM (inactive), the GI50 (U-251) was > 100 µM (inactive) and the GI50 (UO-31) was 69.2 µM (inactive). The GI50 (XF498) was > 100 µM (inactive).

`CC(=O)OCC1OC(n2c(=S)n(-c3ccccc3)c(=S)c3ccccc32)C(OC(C)=O)C(OC(C)=O)C1OC(C)=O` (stereo not given) was tested, and the GI50 (786-0) was > 80.9 µM (inactive) and 62.8 µM (inactive), the GI50 (HCT-116) was > 89.1 µM (inactive) and 57 µM (inactive) and the GI50 (HOP-18) was 6.87 µM (inactive). For the same compound, the GI50 (HOP-92) was > 37.7 µM (inactive) and 41.1 µM (inactive), the GI50 (RXF 631) was > 57.3 µM (inactive) and 71.4 µM (inactive) and the GI50 (SF-539) was 43.9 µM (inactive) and 48.5 µM (inactive). For the same compound, the GI50 (TK-10) was 16.9 µM (inactive).

In the case of `CCOC(=O)C12CCCC1(O)N(NC(=O)c1cccc(Cl)c1)C(C)=C2C(=O)OC` (stereo not given), the GI50 (786-0) is reported as > 100 µM (inactive), the GI50 (A498) is reported as > 100 µM (inactive) and the GI50 (A549) is reported as > 100 µM (inactive). The GI50 (ACHN) was > 100 µM (inactive), the GI50 (CAKI-1) was > 100 µM (inactive) and the GI50 (DLD-1) was > 100 µM (inactive). For the same compound, the GI50 (DMS-114) was > 100 µM (inactive), the GI50 (DMS-273) was 56.2 µM (inactive) and the GI50 (EKVX) was 56.6 µM (inactive). The GI50 (HCC 2998) was > 100 µM (inactive), the GI50 (HCT-116) was > 100 µM (inactive) and the GI50 (HCT-15) was over 100 µM. For the same compound, the GI50 (HL-60) was > 100 µM (inactive), the GI50 (HOP-62) was > 100 µM (inactive) and the GI50 (HT-29) was > 100 µM (inactive). For the same compound, the GI50 (IGROV-1) was > 100 µM (inactive), the GI50 (K562) was 96.6 µM (inactive) and the GI50 (KM-20L2) was > 100 µM (inactive). The GI50 (KM12) was > 100 µM (inactive), the GI50 (LOX IMVI) was > 100 µM (inactive) and the GI50 (LXFL 529) was > 100 µM (inactive). For the same compound, the GI50 (M14) was > 100 µM (inactive), the GI50 (M19-MEL) was > 100 µM (inactive) and the GI50 (MOLT-4) was 55.7 µM (inactive). The GI50 (Malme-3M) was > 100 µM (inactive), the GI50 (NCI-H226) was > 100 µM (inactive) and the GI50 (NCI-H460) was > 100 µM (inactive). The GI50 (NCI-H522) was 40.5 µM (inactive), the GI50 (OVCAR-3) was > 100 µM (inactive) and the GI50 (OVCAR-4) was > 100 µM (inactive). For the same compound, the GI50 (OVCAR-5) was > 100 µM (inactive), the GI50 (OVCAR-8) was > 100 µM (inactive) and the GI50 (RPMI-8226) was 56 µM (inactive). The GI50 (RXF 393) was 46.5 µM (inactive), the GI50 (RXF 631) was 55.7 µM (inactive) and the GI50 (SF-268) was > 100 µM (inactive). The GI50 (SF-295) was 72.4 µM (inactive), the GI50 (SF-539) was > 100 µM (inactive) and the GI50 (SK-MEL-28) was > 100 µM (inactive). For the same compound, the GI50 (SK-MEL-2) was > 100 µM (inactive), the GI50 (SK-MEL-5) was > 100 µM (inactive) and the GI50 (SK-OV-3) was > 100 µM (inactive). The GI50 (SN12C) was > 100 µM (inactive), the GI50 (SNB-19) was > 100 µM (inactive) and the GI50 (SNB-75) was 34.5 µM (inactive). The GI50 (SR) was 53 µM (inactive), the GI50 (SW-620) was > 100 µM (inactive) and the GI50 (U-251) was > 100 µM (inactive). For the same compound, the GI50 (UACC-257) was 69.5 µM (inactive), the GI50 (UACC-62) was > 100 µM (inactive) and the GI50 (UO-31) was > 100 µM (inactive). The GI50 (XF498) was > 100 µM (inactive).

`CC(=O)OCC1OC(n2c(=S)n(-c3ccccc3)c(=O)c3cc(Br)ccc32)C(OC(C)=O)C(OC(C)=O)C1OC(C)=O` (stereo not given) was tested, and the GI50 (786-0) was > 100 µM (inactive), the GI50 (A498) was > 100 µM (inactive) and the GI50 (A549) was > 100 µM (inactive). For the same compound, the GI50 (ACHN) was > 100 µM (inactive), the GI50 (CAKI-1) was > 100 µM (inactive) and the GI50 (CCRF-CEM) was > 100 µM (inactive). For the same compound, the GI50 (COLO 205) was > 100 µM (inactive), the GI50 (DLD-1) was > 100 µM (inactive) and the GI50 (DMS-114) was > 100 µM (inactive). For the same compound, the GI50 (DMS-273) was > 100 µM (inactive), the GI50 (EKVX) was > 100 µM (inactive) and the GI50 (HCC 2998) was > 100 µM (inactive). For the same compound, the GI50 (HCT-15) was over 100 µM, the GI50 (HL-60) was > 100 µM (inactive) and the GI50 (HOP-62) was > 100 µM (inactive). The GI50 (HT-29) was > 100 µM (inactive), the GI50 (IGROV-1) was > 100 µM (inactive) and the GI50 (K562) was > 100 µM (inactive). For the same compound, the GI50 (KM-20L2) was > 100 µM (inactive), the GI50 (KM12) was > 100 µM (inactive) and the GI50 (LOX IMVI) was > 100 µM (inactive). The GI50 (LXFL 529) was > 100 µM (inactive), the GI50 (M14) was > 100 µM (inactive) and the GI50 (M19-MEL) was > 100 µM (inactive). The GI50 (MOLT-4) was > 100 µM (inactive) and 94.6 µM (inactive), the GI50 (NCI-H226) was > 100 µM (inactive) and the GI50 (NCI-H23) was > 100 µM (inactive). For the same compound, the GI50 (NCI-H460) was > 100 µM (inactive), the GI50 (NCI-H522) was > 100 µM (inactive) and the GI50 (OVCAR-3) was > 100 µM (inactive). The GI50 (OVCAR-5) was > 100 µM (inactive), the GI50 (OVCAR-8) was > 100 µM (inactive) and the GI50 (RPMI-8226) was > 100 µM (inactive). For the same compound, the GI50 (RXF 631) was > 100 µM (inactive), the GI50 (SF-268) was > 100 µM (inactive) and the GI50 (SF-539) was > 100 µM (inactive). For the same compound, the GI50 (SK-MEL-28) was > 100 µM (inactive), the GI50 (SK-MEL-5) was > 100 µM (inactive) and the GI50 (SK-OV-3) was > 100 µM (inactive). The GI50 (SN12C) was > 100 µM (inactive), the GI50 (SNB-19) was > 100 µM (inactive) and 70.5 µM (inactive) and the GI50 (SW-620) was > 100 µM (inactive). The GI50 (U-251) was > 100 µM (inactive), the GI50 (UACC-257) was > 100 µM (inactive) and the GI50 (UACC-62) was > 100 µM (inactive). For the same compound, the GI50 (UO-31) was > 100 µM (inactive).
